System: SW620 colorectal cancer cell line
Assay: Flow cytometry of EpCAM positive cells and cancer stem cell (CD44+CD133-) subpopulation after incubation with cytokines
Assay type: cell-based, human
Details: for % Gated, R4 (CD44FITC, CD133 PE) / % Total, R4 (CD44FITC, CD133 PE): population R4 & R14 & R2 & R1; for % Gated, R5 (CD44FITC, CD133 PE) / % Total, R5 (CD44FITC, CD133 PE): population R5 & R14 & R2 & R1; for % Gated, R6 (CD44FITC, CD133 PE) / % Total, R6 (CD44FITC, CD133 PE): population R6 & R14 & R2 & R1; for % Gated, R7 Cancer Stem Cell (CSC) (CD44+CD133-) / % Total, R7 Cancer Stem Cell (CSC) (CD44+CD133-): population R7 & R14 & R2 & R1; for % Gated, R8 (CD44FITC, EpCAMefluor710) / % Total, R8 (CD44FITC, EpCAMefluor710): population R8 & R14 & R2 & R1; for % Gated, R9 EpCAM positive Cells (CD44FITC, EpCAMefluor710) / % Total, R9 EpCAM positive Cells (CD44FITC, EpCAMefluor710): population R9 & R14 & R2 & R1; for % Gated, R10 EpCAM positive Cells (CD44FITC, EpCAMefluor710) / % Total, R10 EpCAM positive Cells (CD44FITC, EpCAMefluor710): population R10 & R14 & R2 & R1; for % Gated, R11 (CD44FITC, EpCAMefluor710) / % Total, R11 (CD44FITC, EpCAMefluor710): population R11 & R14 & R2 & R1
Experimental: This number returned to near baseline 21% at 48 hours. […] This change was transient, occurring within 24 hours and rapidly returning to baseline.
The data from the scatter plots of FIGS. 1A-1H, 2A-2H, and 3A-3H are reproduced below in Tables 1-3.
Based on the above data of potentiating the effectiveness of chemotherapy by exposing cancer cells to specific cytokines such as HGF and or Il-6 within a time limited fashion, the mechanism behind this ability to sensitize cancer cells may not simply be triggering cellular proliferation. Specific cytokine exposures can transiently cause a cancer cell population to differentiate away from a more stem cell enriched, mesenchymal phenotype towards a more differentiated, epithelial cell population more sensitive to the effects of anti-cancer therapies (see Tables 1-3).
In particular, exposure to a control population of SW620 colorectal cancer cell line to HGF at a concentration of 10 ng per ml for 24 hours caused the control putative stem cell population (CD44+/CD133−) to drop from 33% at baseline (see Table 1, R7 region, CD 44 positive/CD133 negative) to 1% (see Table 2, R7, region CD 44 positive/CD133 negative). This drop was transient, as exposure to the same cell line for 48 hours of HGF at 10 ng per ml transitioned the phenotypic distribution back towards a stem cell enriched phenotype with 23% putative stem cells (see Table 3, R7 region, CD 44 positive/CD133 negative).

## IL8: cytokine treatment IL8 in Tables 1-3
0 hour incubation
  % Gated, R4 (CD44FITC, CD133 PE): 48.9%
  % Total, R4 (CD44FITC, CD133 PE): 40.9%
  % Gated, R5 (CD44FITC, CD133 PE): 3.58%
  % Total, R5 (CD44FITC, CD133 PE): 2.99%
  % Gated, R6 (CD44FITC, CD133 PE): 14.3%
  % Total, R6 (CD44FITC, CD133 PE): 12%
  % Gated, R7 Cancer Stem Cell (CSC) (CD44+CD133-): 33.5%
  % Total, R7 Cancer Stem Cell (CSC) (CD44+CD133-): 28%
  % Gated, R8 (CD44FITC, EpCAMefluor710): 3.84%
  % Total, R8 (CD44FITC, EpCAMefluor710): 3.21%
  % Gated, R9 EpCAM positive Cells (CD44FITC, EpCAMefluor710): 55%
  % Total, R9 EpCAM positive Cells (CD44FITC, EpCAMefluor710): 46%
  % Gated, R10 EpCAM positive Cells (CD44FITC, EpCAMefluor710): 38.9%
  % Total, R10 EpCAM positive Cells (CD44FITC, EpCAMefluor710): 32.6%
  % Gated, R11 (CD44FITC, EpCAMefluor710): 1.92%
  % Total, R11 (CD44FITC, EpCAMefluor710): 1.6%
24 h incubation
  % Gated, R4 (CD44FITC, CD133 PE): 36.8%
  % Total, R4 (CD44FITC, CD133 PE): 30%
  % Gated, R5 (CD44FITC, CD133 PE): 7.29%
  % Total, R5 (CD44FITC, CD133 PE): 5.93%
  % Gated, R6 (CD44FITC, CD133 PE): 30.9%
  % Total, R6 (CD44FITC, CD133 PE): 25.2%
  % Gated, R7 Cancer Stem Cell (CSC) (CD44+CD133-): 24.5%
  % Total, R7 Cancer Stem Cell (CSC) (CD44+CD133-): 19.9%
  % Gated, R8 (CD44FITC, EpCAMefluor710): 1.98%
  % Total, R8 (CD44FITC, EpCAMefluor710): 1.61%
  % Gated, R9 EpCAM positive Cells (CD44FITC, EpCAMefluor710): 48.4%
  % Total, R9 EpCAM positive Cells (CD44FITC, EpCAMefluor710): 39.4%
  % Gated, R10 EpCAM positive Cells (CD44FITC, EpCAMefluor710): 50.1%
  % Total, R10 EpCAM positive Cells (CD44FITC, EpCAMefluor710): 40.6%
  % Gated, R11 (CD44FITC, EpCAMefluor710): 0.34%
  % Total, R11 (CD44FITC, EpCAMefluor710): 0.27%
48 h incubation
  % Gated, R4 (CD44FITC, CD133 PE): 38.5%
  % Total, R4 (CD44FITC, CD133 PE): 35.8%
  % Gated, R5 (CD44FITC, CD133 PE): 6.8%
  % Total, R5 (CD44FITC, CD133 PE): 6.32%
  % Gated, R6 (CD44FITC, CD133 PE): 28.5%
  % Total, R6 (CD44FITC, CD133 PE): 26.5%
  % Gated, R7 Cancer Stem Cell (CSC) (CD44+CD133-): 26.8%
  % Total, R7 Cancer Stem Cell (CSC) (CD44+CD133-): 24.9%
  % Gated, R8 (CD44FITC, EpCAMefluor710): 23.1%
  % Total, R8 (CD44FITC, EpCAMefluor710): 21.5%
  % Gated, R9 EpCAM positive Cells (CD44FITC, EpCAMefluor710): 31%
  % Total, R9 EpCAM positive Cells (CD44FITC, EpCAMefluor710): 28.8%
  % Gated, R10 EpCAM positive Cells (CD44FITC, EpCAMefluor710): 25.4%
  % Total, R10 EpCAM positive Cells (CD44FITC, EpCAMefluor710): 23.6%
  % Gated, R11 (CD44FITC, EpCAMefluor710): 21.4%
  % Total, R11 (CD44FITC, EpCAMefluor710): 19.9%
